The source made the active and inactive calls. The rule behind the calls is not given here.
What was measured:
[1] = test system: Mycolicibacterium smegmatis; experiment: Antibacterial activity against Mycobacterium smegmatis ATCC 14468 assessed as reduction in bacterial growth at 12 ug/ml incubated for 48 hrs by spectrometry analysis; type: functional; set-up: scale not given: the % may be the effect or the level left; conditions: dose 12 µg/ml
[2] = test system: Mycolicibacterium smegmatis; experiment: Antibacterial activity against Mycobacterium smegmatis ATCC 14468 assessed as reduction in bacterial growth at 3 ug/ml measured every 6 hrs by spectrometry analysis; type: functional, organism-based; conditions: dose 3.0 µg/ml
[3] = test system: Mycolicibacterium smegmatis; experiment: Antibacterial activity against Mycobacterium smegmatis ATCC 14468 assessed as log2 fold change in NADH-quinone oxidoreductase subunit C expression at 3 ug/ml incubated for 12 hrs by mass spectrometric analysis; type: functional; conditions: dose 3 µg/ml
[4] = test system: Mycolicibacterium smegmatis; experiment: Antibacterial activity against Mycobacterium smegmatis ATCC 14468 assessed as log2 fold change in dihydroorotate dehydrogenase expression at 3 ug/ml incubated for 12 hrs by mass spectrometric analysis; type: functional; conditions: dose 3 µg/ml
[5] = test system: Mycolicibacterium smegmatis; experiment: Antibacterial activity against Mycobacterium smegmatis ATCC 14468 assessed as log2 fold change in MscS expression at 3 ug/ml incubated for 12 hrs by mass spectrometric analysis; type: functional; conditions: dose 3 µg/ml
[6] = test system: Mycolicibacterium smegmatis; experiment: Antibacterial activity against Mycobacterium smegmatis ATCC 14468 assessed as log2 fold change in TrkA expression at 3 ug/ml incubated for 12 hrs by mass spectrometric analysis; type: functional; conditions: dose 3 µg/ml
[7] = test system: Mycolicibacterium smegmatis; experiment: Antibacterial activity against Mycobacterium smegmatis ATCC 14468 assessed as log2 fold change in signal transduction histidine kinase expression at 3 ug/ml incubated for 12 hrs by mass spectrometric analysis; type: functional; conditions: dose 3 µg/ml
[8] = test system: Mycolicibacterium smegmatis; experiment: Antibacterial activity against Mycobacterium smegmatis ATCC 14468 assessed as log2 fold change in cytochrome P450 107B1 expression at 3 ug/ml incubated for 12 hrs by mass spectrometric analysis; type: functional; conditions: dose 3 µg/ml
[9] = test system: Mycolicibacterium smegmatis; experiment: Antibacterial activity against Mycobacterium smegmatis ATCC 14468 assessed as log2 fold change in cytochrome bc1 complex Rieske-iron-sulfur subunit expression at 3 ug/ml incubated for 12 hrs by mass spectrometric analysis; type: functional; conditions: dose 3 µg/ml
[10] = test system: Mycolicibacterium smegmatis; experiment: Antibacterial activity against Mycobacterium smegmatis ATCC 14468 assessed as log2 fold change in cytochrome bd-type quinol oxidase, subunit 1 expression at 3 ug/ml incubated for 12 hrs by mass spectrometric analysis; type: functional; conditions: dose 3 µg/ml
[11] = Cytotoxicity against african green monkey Vero cells assessed as cell viability at 25 ug/ml by MTT assay; type: toxicity, cell-based; conditions: chlorocebus sabaeus, at 25 µg/mL, read-out: Activity
[12] = Acute toxicity in Albino mouse assessed as mortality at 2000 mg/kg, po after 2 to 4 hrs; type: organism-based; conditions: in vivo, time 2-4 hrs
[13] = Acute toxicity in po dosed Albino mouse assessed as mortality after 14 days; type: organism-based; conditions: in vivo, time 14 day
[14] = Acute toxicity in Albino mouse assessed as change in hemoglobin level at 50 to 2000 mg/kg, po measured after 14 days (reference value: 12.8 g/dl); type: organism-based; conditions: in vivo, 336 h, dose 50-2000 mg/kg, time 14 day
[15] = Acute toxicity in Albino mouse assessed as change in total leucocyte count at 50 to 2000 mg/kg, po measured after 14 days (reference value: 7400 mm3); type: organism-based; conditions: in vivo, 336 h, dose 50-2000 mg/kg, time 14 day
[16] = Acute toxicity in Albino mouse assessed as change in neutrophils at 50 to 2000 mg/kg, po measured after 14 days (reference value: 75%); type: organism-based; conditions: in vivo, 336 h, dose 50-2000 mg/kg, time 14 day
[17] = Acute toxicity in Albino mouse assessed as change in lymphocytes at 50 to 2000 mg/kg, po measured after 14 days (reference value: 21%); type: organism-based; conditions: in vivo, 336 h, dose 50-2000 mg/kg, time 14 day
[18] = Acute toxicity in Albino mouse assessed as change in monocytes at 50 to 2000 mg/kg, po measured after 14 days (reference value: 1%); type: organism-based; conditions: in vivo, 336 h, dose 50-2000 mg/kg, time 14 day
[19] = Acute toxicity in Albino mouse assessed as change in platelet count at 50 to 2000 mg/kg, po measured after 14 days (reference value: 3.24 mm3); type: organism-based; set-up: unit not given here; conditions: in vivo, 336 h, dose 50-2000 mg/kg, time 14 day
[20] = Acute toxicity in Albino mouse assessed as change in RBC count measured per million cells at 50 to 2000 mg/kg, po measured after 14 days (reference value: 9.15 microL); type: organism-based, Erythrocyte; conditions: in vivo, 336 h, dose 50-2000 mg/kg, time 14 day
[21] = Acute toxicity in Albino mouse assessed as change in SGOT count at 50 to 2000 mg/kg, po measured after 14 days (reference value: 42 IU/L); type: organism-based; conditions: in vivo, 336 h, dose 50-2000 mg/kg, time 14 day
[22] = Acute toxicity in Albino mouse assessed as change in serum urea level at 50 to 2000 mg/kg, po measured after 14 days (reference value: 46 mg/dl); type: organism-based; conditions: in vivo, 336 h, dose 50-2000 mg/kg, time 14 day
[23] = Acute toxicity in Albino mouse assessed as change in ALP level at 50 to 2000 mg/kg, po measured after 14 days (reference value: 28 IU/L); type: organism-based; conditions: in vivo, 336 h, dose 50-2000 mg/kg, time 14 day
[24] = Acute toxicity in Albino mouse assessed as change in LDH level at 50 to 2000 mg/kg, po measured after 14 days (reference value: 1052 IU/L); type: organism-based; conditions: in vivo, 336 h, dose 50-2000 mg/kg, time 14 day
[25] = test system: Mycolicibacterium smegmatis; experiment: Antibacterial activity against Mycobacterium smegmatis ATCC 14468 assessed as log2 fold change in adenosine metabolite level by mass spectrometry analysis; type: functional
[26] = test system: Mycolicibacterium smegmatis; experiment: Antibacterial activity against Mycobacterium smegmatis ATCC 14468 assessed as log2 fold change in DL-gamma-Amino-beta-hydroxybutyric acid metabolite level by mass spectrometry analysis; type: functional
[27] = test system: Mycolicibacterium smegmatis; experiment: Antibacterial activity against Mycobacterium smegmatis ATCC 14468 assessed as log2 fold change in (22S)-22-hydroxycampest-4-en-3-one metabolite level by mass spectrometry analysis; type: functional
[28] = test system: Mycolicibacterium smegmatis; experiment: Antibacterial activity against Mycobacterium smegmatis ATCC 14468 assessed as log2 fold change in 24-methylenecholesterol metabolite level by mass spectrometry analysis; type: functional
[29] = Renal toxicity in Albino mouse assessed as change in renal corpuscles at 50 to 2000 mg/kg, po measured after 14 days; type: organism-based; conditions: in vivo, 336 h, dose 50-2000 mg/kg, time 14 day
[30] = Renal toxicity in Albino mouse assessed as change in renal tubules at 50 to 2000 mg/kg, po measured after 14 days; type: organism-based; conditions: in vivo, 336 h, dose 50-2000 mg/kg, time 14 day
[31] = Renal toxicity in Albino mouse assessed as change in Bowman's capsule at 50 to 2000 mg/kg, po measured after 14 days; type: organism-based; conditions: in vivo, 336 h, dose 50-2000 mg/kg, time 14 day
[32] = Renal toxicity in Albino mouse assessed as change in distal convoluted tubules at 50 to 2000 mg/kg, po measured after 14 days; type: organism-based; conditions: in vivo, 336 h, dose 50-2000 mg/kg, time 14 day
[33] = Renal toxicity in Albino mouse assessed as extravasation of RBC at 50 to 2000 mg/kg, po measured after 14 days; type: organism-based, Erythrocyte; conditions: in vivo, 336 h, dose 50-2000 mg/kg, time 14 day
[34] = Hepatotoxicity in Albino mouse assessed as change in central vein at 50 to 2000 mg/kg, po measured after 14 days; type: toxicity, organism-based; conditions: in vivo, 336 h, dose 50-2000 mg/kg, time 14 day
[35] = Hepatotoxicity in Albino mouse assessed as change in portal tracks at 50 to 2000 mg/kg, po measured after 14 days; type: toxicity, organism-based; conditions: in vivo, 336 h, dose 50-2000 mg/kg, time 14 day
[36] = Hepatotoxicity in Albino mouse assessed as change in hepatic artery at 50 to 2000 mg/kg, po measured after 14 days; type: toxicity, organism-based, Liver; conditions: in vivo, 336 h, dose 50-2000 mg/kg, time 14 day
[37] = Hepatotoxicity in Albino mouse assessed as change in hepatocytes at 50 to 2000 mg/kg, po measured after 14 days; type: toxicity, organism-based; conditions: in vivo, 336 h, dose 50-2000 mg/kg, time 14 day
[38] = Pulmonary toxicity in Albino mouse assessed as change in bronchi structure at 50 to 2000 mg/kg, po measured after 14 days; type: organism-based; conditions: in vivo, 336 h, dose 50-2000 mg/kg, time 14 day
[39] = Pulmonary toxicity in Albino mouse assessed as change in alveoli structure at 50 to 2000 mg/kg, po measured after 14 days; type: organism-based; conditions: in vivo, 336 h, dose 50-2000 mg/kg, time 14 day

Row | Compound | Activity [1] | Activity [2] | log2FC [3] | log2FC [4] | log2FC [5] | log2FC [6] | log2FC [7] | log2FC [8] | log2FC [9] | log2FC [10] | viability at 25 ug/ml [11] | Activity [14] | Activity [15] | Activity [16] | Activity [17] | Activity [18] | Activity [21] | Activity [22] | Activity [23] | Activity [24] | further results
1 | COc1ccc(C2C(Cl)C(=O)N2C2=C(Cl)C(=O)c3ccccc3C2=O)cc1 (configuration not stated) | 80% | inactive | -1.9 | -1.89 | -2.45 | -6.64 | -6.64 | 6.64 | 1.4 | 5.6 | 37.6% | 13.9 g/dL | 9600 mm3 | 62% | 32% | 1% | 95 IU/L | 50 mg/dL | 44 IU/L | 842 IU/L | Activity [12]: Toxic; LD50 at 336 h [13]: 50 mg/kg; Activity [19]: 5.82; Activity [20]: 9.4; log2FC [25]: -2.55; log2FC [26]: -2.72; log2FC [27]: 2.67; log2FC [28]: 1.74; Activity [29]: Non-Toxic; Activity [30]: Non-Toxic; Activity [31]: Non-Toxic; Activity [32]: Non-Toxic; Activity [33]: Non-Toxic; Activity [34]: Non-Toxic; Activity [35]: Non-Toxic; Activity [36]: Non-Toxic; Activity [37]: Non-Toxic; Activity [38]: Non-Toxic; Activity [39]: Non-Toxic
2 | O=C1C(Cl)=C(Cl)C(=O)c2ccccc21 [Dichlon] | 80% | inactive | -2.08 | -1.92 | -4.39 | -6.64 | -6.64 | 6.64 | 6.64 | 5.6 | 67.1% | 14.3 g/dL | 10400 mm3 | 43% | 53% | 1% | 29 IU/L | 51 mg/dL | 33 IU/L | 1030 IU/L | log2FC [25]: -1.31; log2FC [26]: -2.75; log2FC [27]: -2.01; log2FC [28]: 2.01; Activity [29]: Non-Toxic; Activity [30]: Non-Toxic; Activity [31]: Non-Toxic; Activity [32]: Non-Toxic; Activity [33]: Non-Toxic; Activity [34]: Non-Toxic; Activity [35]: Non-Toxic; Activity [36]: Non-Toxic; Activity [37]: Non-Toxic; Activity [38]: Non-Toxic; Activity [39]: Non-Toxic
3 | CN(C)c1ccc(C2C(Cl)C(=O)N2C2=C(Cl)C(=O)c3ccccc3C2=O)cc1 (configuration not stated) | 80% | inactive | -1.41 | -1.47 | -3.03 | -6.64 | -6.64 | 6.64 | 1.61 | 5.66 | 40.9% | 14.3 g/dL | 9300 mm3 | 60% | 34% | 1% | 109 IU/L | 48 mg/dL | 52 IU/L | 756 IU/L | Activity [12]: Toxic; LD50 at 336 h [13]: 300 mg/kg; Activity [19]: 6.22; Activity [20]: 9.67; log2FC [25]: -1.69; log2FC [26]: -1.1; log2FC [27]: 3.41; log2FC [28]: 0.69; Activity [29]: Non-Toxic; Activity [30]: Non-Toxic; Activity [31]: Non-Toxic; Activity [32]: Non-Toxic; Activity [33]: Non-Toxic; Activity [34]: Non-Toxic; Activity [35]: Non-Toxic; Activity [36]: Non-Toxic; Activity [38]: Non-Toxic; Activity [39]: Non-Toxic
